The molecules below were run on late watergrass (assay: Test Example 1: herbicidal activity, application before weed generation under submerged conditions (Table 16, symbol A)). Settings: 320 g/ha applied herbicide.
Format: in vivo, late watergrass (Echinochloa oryzicola)
Summary of the method: (§1)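 Alluvial soil was flooded to 4 cm depth, weed seeds were sown mixed and 2.5-leaf rice seedlings were transplanted. On sowing day, the compound's emulsion, diluted in water to a set dose, was applied to the water surface. Plants grew at 25–30 °C and were scored 0–5 after three weeks.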

SMILES | Herbicidal effect on A: late watergrass (grade 0-5)
COCc1ccc(-c2sc3ccc(F)cc3c2-c2c(O)c(C)nn(C)c2=O)cc1 [2-022] | 2 (Herbicidal rate of 20% or more and less than 40%)
CCCC(=O)Oc1c(C)nn(C)c(=O)c1-c1c(-c2ccc(COC)cc2)sc2ccc(F)cc12 [2-023] | 2 (Herbicidal rate of 20% or more and less than 40%)
CCCC(=O)Oc1c(C)nn(C)c(=O)c1-c1c(-c2ccc(OC)cc2)sc2ccc(F)cc12 [2-027] | 4 (Herbicidal rate of 70% or more and less than 90%)

These molecules were tested on Japanese bulrush (assay: Test Example 1: herbicidal activity, application before weed generation under submerged conditions (Table 16, symbol B)). Settings: 320 g/ha applied herbicide.
Format: in vivo, Japanese bulrush (Schoenoplectus juncoides)
Summary of the method: as §1

SMILES | Herbicidal effect on B: Japanese bulrush (grade 0-5)
COCc1ccc(-c2sc3ccc(F)cc3c2-c2c(O)c(C)nn(C)c2=O)cc1 [2-022] | 5 (Herbicidal rate of 90% or more (almost completely withered))
CCCC(=O)Oc1c(C)nn(C)c(=O)c1-c1c(-c2ccc(COC)cc2)sc2ccc(F)cc12 [2-023] | 0 (Herbicidal rate of 5% or less (almost no effect))
CCCC(=O)Oc1c(C)nn(C)c(=O)c1-c1c(-c2ccc(OC)cc2)sc2ccc(F)cc12 [2-027] | 5 (Herbicidal rate of 90% or more (almost completely withered))

The molecules below were run on late watergrass (assay: Test Example 2: herbicidal activity, application during weed generation under submerged conditions (Table 17, symbol A)). Settings: AAH 320 g/ha; application during weed generation, submerged conditions.
Format: in vivo, late watergrass (Echinochloa oryzicola)
Summary of the method: (§2)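 Alluvial soil in Wagner pots was flooded to 4 cm depth and sown with the three weeds together; pots were kept in a greenhouse at 25° C. to 30° C. At the one to two leaf stage, an emulsion formulation diluted in water to a set rate went onto the water surface; scored three weeks later.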

SMILES | herbicidal effect rating, A: late watergrass
COCc1ccc(-c2sc3ccc(F)cc3c2-c2c(O)c(C)nn(C)c2=O)cc1 [2-022] | 2 (Herbicidal rate of 20% or more and less than 40%)
CCCC(=O)Oc1c(C)nn(C)c(=O)c1-c1c(-c2ccc(COC)cc2)sc2ccc(F)cc12 [2-023] | 3 (Herbicidal rate of 40% or more and less than 70%)
CCCC(=O)Oc1c(C)nn(C)c(=O)c1-c1c(-c2ccc(OC)cc2)sc2ccc(F)cc12 [2-027] | 3 (Herbicidal rate of 40% or more and less than 70%)

What follows are molecules tested on oval-leafed pondweed (assay: Test Example 2: herbicidal activity, application during weed generation under submerged conditions (Table 17, symbol C)). Settings: AAH 320 g/ha; application during weed generation, submerged conditions.
Format: in vivo, oval-leafed pondweed (Monochoria vaginalis)
Summary of the method: as §2

SMILES | herbicidal effect rating, C: oval-leafed pondweed
COCc1ccc(-c2sc3ccc(F)cc3c2-c2c(O)c(C)nn(C)c2=O)cc1 [2-022] | 4 (Herbicidal rate of 70% or more and less than 90%)
CCCC(=O)Oc1c(C)nn(C)c(=O)c1-c1c(-c2ccc(COC)cc2)sc2ccc(F)cc12 [2-023] | 0 (Herbicidal rate of 5% or less (almost no effect))
CCCC(=O)Oc1c(C)nn(C)c(=O)c1-c1c(-c2ccc(OC)cc2)sc2ccc(F)cc12 [2-027] | 5 (Herbicidal rate of 90% or more (almost completely withered))

What follows are molecules tested on barnyard grass (assay: Test Example 3: herbicidal effect by foliage application, Wagner pot (Table 18, symbol H)). Settings: 320 g/ha.
Format: in vivo, barnyard grass (Echinochloa crus-galli)
Summary of the method: (§3)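 Plants were sown in alluvial soil held under 0.1–0.5 cm standing water and grown 14 days in a greenhouse at 25–30 °C. An emulsifiable formulation, water-diluted to the set dose, was then sprayed onto the foliage, and effects were scored three weeks later using previously defined criteria.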

SMILES | herbicidal effect on H (barnyard grass), rating 0-5
COCc1ccc(-c2sc3ccc(F)cc3c2-c2c(O)c(C)nn(C)c2=O)cc1 [2-022] | 5 (Herbicidal rate of 90% or more (almost completely withered))
CCCC(=O)Oc1c(C)nn(C)c(=O)c1-c1c(-c2ccc(COC)cc2)sc2ccc(F)cc12 [2-023] | 5 (Herbicidal rate of 90% or more (almost completely withered))
CCCC(=O)Oc1c(C)nn(C)c(=O)c1-c1c(-c2ccc(OC)cc2)sc2ccc(F)cc12 [2-027] | 5 (Herbicidal rate of 90% or more (almost completely withered))

The molecules below were run on Chinese sprangletop (assay: Test Example 3: herbicidal effect by foliage application, Wagner pot (Table 18, symbol D)). Settings: 320 g/ha.
Format: in vivo, chinese sprangletop (Leptochloa chinensis)
Summary of the method: as §3

SMILES | herbicidal effect on D (Chinese sprangletop), rating 0-5
COCc1ccc(-c2sc3ccc(F)cc3c2-c2c(O)c(C)nn(C)c2=O)cc1 [2-022] | 4 (Herbicidal rate of 70% or more and less than 90%)
CCCC(=O)Oc1c(C)nn(C)c(=O)c1-c1c(-c2ccc(COC)cc2)sc2ccc(F)cc12 [2-023] | 4 (Herbicidal rate of 70% or more and less than 90%)
CCCC(=O)Oc1c(C)nn(C)c(=O)c1-c1c(-c2ccc(OC)cc2)sc2ccc(F)cc12 [2-027] | 4 (Herbicidal rate of 70% or more and less than 90%)

Each molecule was assayed on rice flat sedge (assay: Test Example 3: herbicidal effect by foliage application, Wagner pot (Table 18, symbol E)). Settings: 320 g/ha.
Format: in vivo, rice flat sedge (Cyperus iria)
Summary of the method: as §3

SMILES | herbicidal effect on E (rice flat sedge), rating 0-5
COCc1ccc(-c2sc3ccc(F)cc3c2-c2c(O)c(C)nn(C)c2=O)cc1 [2-022] | 4 (Herbicidal rate of 70% or more and less than 90%)
CCCC(=O)Oc1c(C)nn(C)c(=O)c1-c1c(-c2ccc(COC)cc2)sc2ccc(F)cc12 [2-023] | 5 (Herbicidal rate of 90% or more (almost completely withered))
CCCC(=O)Oc1c(C)nn(C)c(=O)c1-c1c(-c2ccc(OC)cc2)sc2ccc(F)cc12 [2-027] | 5 (Herbicidal rate of 90% or more (almost completely withered))

Each molecule was assayed on Italian ryegrass (assay: Test Example 4: herbicidal effect by soil treatment (Table 19, symbol K)). Settings: 320 g/ha.
Format: in vivo, Italian ryegrass (Lolium multiflorum)
Summary of the method: (§4)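 Step 1: sow seeds in sterilized diluvial soil, cover ~1.5 cm. Step 2: spray diluted emulsion onto soil surface at predetermined rate. Step 3: greenhouse, 25–30° C, three weeks. Step 4: grade effect on each plant by earlier criteria.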

SMILES | herbicidal effect rating, K: Italian ryegrass
COCc1ccc(-c2sc3ccc(F)cc3c2-c2c(O)c(C)nn(C)c2=O)cc1 [2-022] | 5 (Herbicidal rate of 90% or more (almost completely withered))
CCCC(=O)Oc1c(C)nn(C)c(=O)c1-c1c(-c2ccc(COC)cc2)sc2ccc(F)cc12 [2-023] | 4 (Herbicidal rate of 70% or more and less than 90%)
CCCC(=O)Oc1c(C)nn(C)c(=O)c1-c1c(-c2ccc(OC)cc2)sc2ccc(F)cc12 [2-027] | 4 (Herbicidal rate of 70% or more and less than 90%)

Each molecule was assayed on windgrass (assay: Test Example 4: herbicidal effect by soil treatment (Table 19, symbol L)). Settings: 320 g/ha.
Format: in vivo, windgrass (Apera spica-venti)
Summary of the method: as §4

SMILES | herbicidal effect rating, L: windgrass
COCc1ccc(-c2sc3ccc(F)cc3c2-c2c(O)c(C)nn(C)c2=O)cc1 [2-022] | 5 (Herbicidal rate of 90% or more (almost completely withered))
CCCC(=O)Oc1c(C)nn(C)c(=O)c1-c1c(-c2ccc(COC)cc2)sc2ccc(F)cc12 [2-023] | 0 (Herbicidal rate of 5% or less (almost no effect))
CCCC(=O)Oc1c(C)nn(C)c(=O)c1-c1c(-c2ccc(OC)cc2)sc2ccc(F)cc12 [2-027] | 0 (Herbicidal rate of 5% or less (almost no effect))

What follows are molecules tested on redroot pigweed (assay: Test Example 4: herbicidal effect by soil treatment (Table 19, symbol N)). Settings: 320 g/ha.
Format: in vivo, redroot pigweed (Amaranthus retroflexus)
Summary of the method: as §4

SMILES | herbicidal effect rating, N: redroot pigweed
COCc1ccc(-c2sc3ccc(F)cc3c2-c2c(O)c(C)nn(C)c2=O)cc1 [2-022] | 5 (Herbicidal rate of 90% or more (almost completely withered))
CCCC(=O)Oc1c(C)nn(C)c(=O)c1-c1c(-c2ccc(COC)cc2)sc2ccc(F)cc12 [2-023] | 5 (Herbicidal rate of 90% or more (almost completely withered))
CCCC(=O)Oc1c(C)nn(C)c(=O)c1-c1c(-c2ccc(OC)cc2)sc2ccc(F)cc12 [2-027] | 5 (Herbicidal rate of 90% or more (almost completely withered))

What follows are molecules tested on green foxtail (assay: Test Example 5: herbicidal effect by foliage application, plastic box (Table 20, symbol G)). Settings: foliage application, 320 g/ha, 3 weeks after application.
Format: in vivo, green foxtail (Setaria viridis)
Summary of the method: (§5)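 Foliar spray test: emulsion formulation diluted in water to a set application rate, sprayed onto 14-day-old plants raised in diluvial soil at 25° C to 30° C under glass. Both herbicidal effect and crop effect rated visually three weeks later.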

SMILES | effect on green foxtail (G)
COCc1ccc(-c2sc3ccc(F)cc3c2-c2c(O)c(C)nn(C)c2=O)cc1 [2-022] | 5 (Herbicidal rate of 90% or more (almost completely withered))
CCCC(=O)Oc1c(C)nn(C)c(=O)c1-c1c(-c2ccc(COC)cc2)sc2ccc(F)cc12 [2-023] | 5 (Herbicidal rate of 90% or more (almost completely withered))
CCCC(=O)Oc1c(C)nn(C)c(=O)c1-c1c(-c2ccc(OC)cc2)sc2ccc(F)cc12 [2-027] | 4 (Herbicidal rate of 70% or more and less than 90%)

Each molecule was assayed on barnyard grass (assay: Test Example 5: herbicidal effect by foliage application, plastic box (Table 20, symbol H)). Settings: foliage application, 320 g/ha, 3 weeks after application.
Format: in vivo, barnyard grass (Echinochloa crus-galli)
Summary of the method: as §5

SMILES | effect on barnyard grass (H)
COCc1ccc(-c2sc3ccc(F)cc3c2-c2c(O)c(C)nn(C)c2=O)cc1 [2-022] | 5 (Herbicidal rate of 90% or more (almost completely withered))
CCCC(=O)Oc1c(C)nn(C)c(=O)c1-c1c(-c2ccc(COC)cc2)sc2ccc(F)cc12 [2-023] | 5 (Herbicidal rate of 90% or more (almost completely withered))
CCCC(=O)Oc1c(C)nn(C)c(=O)c1-c1c(-c2ccc(OC)cc2)sc2ccc(F)cc12 [2-027] | 5 (Herbicidal rate of 90% or more (almost completely withered))

Each molecule was assayed on wild oat (assay: Test Example 5: herbicidal effect by foliage application, plastic box (Table 20, symbol I)). Settings: foliage application, 320 g/ha, 3 weeks after application.
Format: in vivo, wild oat (Avena fatua)
Summary of the method: as §5

SMILES | effect on wild oat (I)
COCc1ccc(-c2sc3ccc(F)cc3c2-c2c(O)c(C)nn(C)c2=O)cc1 [2-022] | 3 (Herbicidal rate of 40% or more and less than 70%)
CCCC(=O)Oc1c(C)nn(C)c(=O)c1-c1c(-c2ccc(COC)cc2)sc2ccc(F)cc12 [2-023] | 0 (Herbicidal rate of 5% or less (almost no effect))
CCCC(=O)Oc1c(C)nn(C)c(=O)c1-c1c(-c2ccc(OC)cc2)sc2ccc(F)cc12 [2-027] | 4 (Herbicidal rate of 70% or more and less than 90%)

What follows are molecules tested on blackgrass (assay: Test Example 5: herbicidal effect by foliage application, plastic box (Table 20, symbol J)). Settings: foliage application, 320 g/ha, 3 weeks after application.
Format: in vivo, blackgrass (Alopecurus myosuroides)
Summary of the method: as §5

SMILES | effect on blackgrass (J)
COCc1ccc(-c2sc3ccc(F)cc3c2-c2c(O)c(C)nn(C)c2=O)cc1 [2-022] | 4 (Herbicidal rate of 70% or more and less than 90%)
CCCC(=O)Oc1c(C)nn(C)c(=O)c1-c1c(-c2ccc(COC)cc2)sc2ccc(F)cc12 [2-023] | 4 (Herbicidal rate of 70% or more and less than 90%)
CCCC(=O)Oc1c(C)nn(C)c(=O)c1-c1c(-c2ccc(OC)cc2)sc2ccc(F)cc12 [2-027] | 2 (Herbicidal rate of 20% or more and less than 40%)

These molecules were tested on Italian ryegrass (assay: Test Example 5: herbicidal effect by foliage application, plastic box (Table 20, symbol K)). Settings: foliage application, 320 g/ha, 3 weeks after application.
Format: in vivo, Italian ryegrass (Lolium multiflorum)
Summary of the method: as §5

SMILES | effect on Italian ryegrass (K)
COCc1ccc(-c2sc3ccc(F)cc3c2-c2c(O)c(C)nn(C)c2=O)cc1 [2-022] | 5 (Herbicidal rate of 90% or more (almost completely withered))
CCCC(=O)Oc1c(C)nn(C)c(=O)c1-c1c(-c2ccc(COC)cc2)sc2ccc(F)cc12 [2-023] | 4 (Herbicidal rate of 70% or more and less than 90%)
CCCC(=O)Oc1c(C)nn(C)c(=O)c1-c1c(-c2ccc(OC)cc2)sc2ccc(F)cc12 [2-027] | 5 (Herbicidal rate of 90% or more (almost completely withered))

Source: patent US20230085307A1, “PYRIDAZINONE COMPOUND AND HERBICIDE” (NISSAN CHEMICAL CORPORATION, priority 2019, published 2023)
